Assay results taken from PubChem BioAssay AID1963856 (Molecular Pharmacology Branch, DTP, NCI, 2024).
Activity calls are given as the source filed them. Rule for the calls: active = viability on the fitted dose curve at most 10% of control; inactive = the rest.

System: LG0567-F671-PDC KRAS tumor spheroid viability
Experiment: Anticancer human tumor LG0567-F671-PDC patient-derived lung adenocarcinoma cell line growth inhibition [KRAS2]
Settings: spheroids with HUVEC and MSC; for viability, T/C: stronger effect = lower value
Procedure, shortened: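 Combination screen of spheroid viability in tumor-cell co-cultures with endothelial (HUVEC) and mesenchymal stem cell stroma. Each agent was tested in half-log dilutions, topping at clinical Cmax or at 10 microM without a known Cmax.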

[1] = curve of first compound, second compound 0.1 µM
[2] = curve of first compound, second compound 0.316 µM
[3] = curve of first compound, second compound 1 µM
[4] = curve of first compound, second compound 3.16 µM
[5] = curve of first compound, second compound 10 µM
[6] = second compound 0.1 µM, first compound 0.0316 µM
[7] = second compound 0.1 µM, first compound 0.1 µM
[8] = second compound 0.1 µM, first compound 0.316 µM
[9] = second compound 0.1 µM, first compound 1 µM
[10] = second compound 0.1 µM, first compound 3.16 µM
[11] = second compound 0.1 µM, first compound 10 µM
[12] = second compound 0.316 µM, first compound 0.0316 µM
[13] = second compound 0.316 µM, first compound 0.1 µM
[14] = second compound 0.316 µM, first compound 0.316 µM
[15] = second compound 0.316 µM, first compound 1 µM
[16] = second compound 0.316 µM, first compound 3.16 µM
[17] = second compound 0.316 µM, first compound 10 µM
[18] = second compound 1 µM, first compound 0.0316 µM
[19] = second compound 1 µM, first compound 0.1 µM
[20] = second compound 1 µM, first compound 0.316 µM
[21] = second compound 1 µM, first compound 1 µM
[22] = second compound 1 µM, first compound 3.16 µM
[23] = second compound 1 µM, first compound 10 µM
[24] = second compound 3.16 µM, first compound 0.0316 µM
[25] = second compound 3.16 µM, first compound 0.1 µM
[26] = second compound 3.16 µM, first compound 0.316 µM
[27] = second compound 3.16 µM, first compound 1 µM
[28] = second compound 3.16 µM, first compound 3.16 µM
[29] = second compound 3.16 µM, first compound 10 µM
[30] = second compound 10 µM, first compound 0.0316 µM
[31] = second compound 10 µM, first compound 0.1 µM
[32] = second compound 10 µM, first compound 0.316 µM
[33] = second compound 10 µM, first compound 1 µM
[34] = second compound 10 µM, first compound 3.16 µM
[35] = second compound 10 µM, first compound 10 µM
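Throughout, for IC50: drug exposure lasted seven days after spheroids formed for three days.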
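Throughout, for viability, T/C: drug exposure lasted seven days after spheroids formed for three days; 100% = DMSO vehicle control viability.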

## CC(C)NCC(C(=O)N1CCN(c2ncnc3c2C(C)CC3O)CC1)c1ccc(Cl)cc1 (stereo not given) + CNCc1ccccc1-c1csc(C(C)Nc2nc(C)nc3cc(OC)c(OC)cc23)c1
[1]
  IC50: > 10000 nM
[2]
  IC50: > 10000 nM
[3]
  IC50: 675 nM
[4]
  IC50: < 31.6 nM
[5]
  IC50: < 31.6 nM
[6]
  viability, T/C: 78.9%
[7]
  viability, T/C: 72.3%
[8]
  viability, T/C: 53%
[9]
  viability, T/C: 62%
[10]
  viability, T/C: 70.9%
[11]
  viability, T/C: 61.6%
[12]
  viability, T/C: 68.2%
[13]
  viability, T/C: 54.6%
[14]
  viability, T/C: 46.7%
[15]
  viability, T/C: 54.5%
[16]
  viability, T/C: 59.1%
[17]
  viability, T/C: 54.6%
[18]
  viability, T/C: 60.4%
[19]
  viability, T/C: 63.5%
[20]
  viability, T/C: 52.3%
[21]
  viability, T/C: 42.8%
[22]
  viability, T/C: 48.3%
[23]
  viability, T/C: 42.2%
[24]
  viability, T/C: 0.25%
[25]
  viability, T/C: 0.18%
[26]
  viability, T/C: 0.11%
[27]
  viability, T/C: 1.4%
[28]
  viability, T/C: 0.12%
[29]
  viability, T/C: 0.97%
[30]
  viability, T/C: 0.84%
[31]
  viability, T/C: 0.44%
[32]
  viability, T/C: 0.13%
[33]
  viability, T/C: 0.12%
[34]
  viability, T/C: 2.26%
[35]
  viability, T/C: 0.6%

## COC(=O)c1ccc2c(C(=Nc3ccc(N(C)C(=O)CN4CCN(C)CC4)cc3)c3ccccc3)c(O)[nH]c2c1
Compound 0.1 µM
  viability, T/C: 91% [middle of 5 runs]
Compound 1 µM
  viability, T/C: 90.2% [middle of 5 runs]
Compound 3.16 µM
  viability, T/C: 93% [middle of 5 runs]
Compound 10 µM
  viability, T/C: 94.1% [middle of 5 runs]
Curve of compound
  IC50: > 10000 nM

## O=C(c1cc(Cc2n[nH]c(=O)c3ccccc23)ccc1F)N1CCN(C(=O)C2CC2)CC1 + CC1OCC2(CCN(c3cnc(Sc4ccnc(N)c4Cl)c(N)n3)CC2)C1N
[1]
  IC50: > 10000 nM
[2]
  IC50: < 31.6 nM
[3]
  IC50: < 31.6 nM
[4]
  IC50: < 31.6 nM
[5]
  IC50: < 31.6 nM
[6]
  viability, T/C: 63.8%
[7]
  viability, T/C: 54%
[8]
  viability, T/C: 60.3%
[9]
  viability, T/C: 59.7%
[10]
  viability, T/C: 54.4%
[11]
  viability, T/C: 53.2%
[12]
  viability, T/C: 37.9%
[13]
  viability, T/C: 35.5%
[14]
  viability, T/C: 32.3%
[15]
  viability, T/C: 32.9%
[16]
  viability, T/C: 33.5%
[17]
  viability, T/C: 38.2%
[18]
  outcome: inactive
[19]
  viability, T/C: 40%
[20]
  viability, T/C: 35.5%
[21]
  viability, T/C: 29.8%
[22]
  viability, T/C: 32.8%
[23]
  viability, T/C: 28.6%
[24]
  viability, T/C: 20.9%
[25]
  viability, T/C: 20.8%
[26]
  viability, T/C: 24.8%
[27]
  viability, T/C: 26%
[28]
  viability, T/C: 23.9%
[29]
  viability, T/C: 23.8%
[30]
  viability, T/C: 10.2%
[31]
  viability, T/C: 11%
[32]
  viability, T/C: 12.2%
[33]
  viability, T/C: 11.8%
[34]
  viability, T/C: 14.2%
[35]
  viability, T/C: 17.4%

## Cn1ncnc1[C@H]1c2n[nH]c(=O)c3cc(F)cc(c23)N[C@@H]1c1ccc(F)cc1 + CNCc1ccccc1-c1csc(C(C)Nc2nc(C)nc3cc(OC)c(OC)cc23)c1
[1]
  IC50: > 100 nM
[2]
  IC50: > 100 nM
[3]
  IC50: 13.1 nM
[4]
  IC50: < 0.316 nM
[5]
  IC50: < 0.316 nM
Second compound 0.1 µM, first compound 0.000316 µM
  viability, T/C: 79.2%
Second compound 0.1 µM, first compound 0.001 µM
  viability, T/C: 82%
Second compound 0.1 µM, first compound 0.00316 µM
  viability, T/C: 73.4%
Second compound 0.1 µM, first compound 0.01 µM
  viability, T/C: 70%
[6]
  viability, T/C: 71.4%
[7]
  viability, T/C: 74.5%
Second compound 0.316 µM, first compound 0.000316 µM
  viability, T/C: 64.8%
Second compound 0.316 µM, first compound 0.001 µM
  viability, T/C: 64.9%
Second compound 0.316 µM, first compound 0.00316 µM
  viability, T/C: 61.1%
Second compound 0.316 µM, first compound 0.01 µM
  viability, T/C: 57.6%
[12]
  viability, T/C: 58%
[13]
  viability, T/C: 60.6%
Second compound 1 µM, first compound 0.000316 µM
  viability, T/C: 46.2%
Second compound 1 µM, first compound 0.001 µM
  viability, T/C: 54.4%
Second compound 1 µM, first compound 0.00316 µM
  viability, T/C: 53.7%
Second compound 1 µM, first compound 0.01 µM
  viability, T/C: 55.8%
[18]
  viability, T/C: 42.2%
[19]
  viability, T/C: 46.1%
Second compound 3.16 µM, first compound 0.000316 µM
  viability, T/C: 0.22%
Second compound 3.16 µM, first compound 0.001 µM
  viability, T/C: 0.9%
Second compound 3.16 µM, first compound 0.00316 µM
  viability, T/C: 0.17%
Second compound 3.16 µM, first compound 0.01 µM
  viability, T/C: 0.13%
[24]
  viability, T/C: 0.2%
[25]
  viability, T/C: 0.36%
Second compound 10 µM, first compound 0.000316 µM
  viability, T/C: 0.39%
Second compound 10 µM, first compound 0.001 µM
  viability, T/C: 0.63%
Second compound 10 µM, first compound 0.00316 µM
  viability, T/C: 0.39%
Second compound 10 µM, first compound 0.01 µM
  viability, T/C: 0.11%
[30]
  viability, T/C: 1.32%
[31]
  viability, T/C: 0.63%
